As a reminder, the IC50 is the concentration that inhibits the measured activity by half. A low value points to inhibition by little substance.

The structures appear in SMILES notation. Where only a bound is given, the exact number is not on record here.

This assay relates to immortalized human sebocyte cell line, SZ95. The assay can be described thus: In vitro assay of inhibition of lipid synthesis. The assay is classed as cell-based. The conditions noted are these: 48 h, SZ95 sebocytes. Here is the method: In Vitro Assay of Inhibition of Lipid Synthesis
To evaluate the inhibition of lipid synthesis, the immortalized human sebocyte cell line, SZ95 (stablished by Zouboulis, C. C. et al J Invest Dermatol 1999; 113:1011-20), was treated with arachidonic acid (AA) in presence or absence of compound. Lipids were detected by using a lipid sensing fluorophore.
Compounds were dissolved in dimethylsulfoxide (DMSO) 100%. Then the stocks were serial diluted 1/3 in DMSO 100%, and this battery of solutions were diluted 1/10 in culture medium, to minimize the percentage of the DMSO over cells.
10 k cells were plated in 384 well microtiter plates and incubated at 37° C. and 5% CO2 in DMEM/F12 supplemented with 10% FBS, 1.25 ng/ml of rhEGF and GA-1000 before of compound and stimulus addition. After 24 h, compounds dissolved in culture media were added over cells, diluting the solutions prepared 1/40 in the final volume of the assay. Then, cells and compounds were preincubated for 30 min at 37° C. and 5% CO2. After this prior incubation, the lipid synthesis was induced by 75 μM of AA final solution, preparing a solution 10× in culture media. Finally, SZ95 treated were incubated for 48 h at 37° C. and 5% CO2.
Neutral lipids were measured using AdipoRed™, purchased from LONZA. To do that, cells were washed with PBS and incubated with a solution of AdipoRed™ (final dilution 1/80 in PBS) for 30 min at room temperature. After the staining process, the fluorescence intensity (FI) was quantified using a fluorescence plate reader (excitation 485 nm; emission 535).
Activity of compounds were calculated as % of inhibition considering the maximal fluorescence for AA-stimulated cells and the minimum fluorescence for unstimulated cells as controls.

[1] abbreviates: lipid synthesis induced by 75 μM arachidonic acid, AdipoRed fluorescence, Table 1.
Setting [2] is: 75 μM arachidonic acid, AdipoRed, Table 2, finer classes for compounds with IC50 less than 250 nM.

`CCCCCCCCCCCCOc1c[nH]c(C(=O)O)c1` [Example 1, 4-(Dodecyloxy)-1H-pyrrole-2-carboxylic acid] had an IC50 under setting [1] of 250 to 1000 nM.

Under setting [1], `CCCCCCCCCCCCOc1c[nH]c(C(=O)OCC)c1` [Example 2, Ethyl 4-(dodecyloxy)-1H-pyrrole-2-carboxylate] displayed an IC50 of over 5000 nM.

In turn, `CCCCCCCCCCCCOc1c[nH]c(C(=O)OCCN2C(=O)CCC2=O)c1` [Example 3, 2-(2,5-Dioxopyrrolidin-1-yl)ethyl 4-(dodecyloxy)-1H-pyrrole-2-carboxylate] returned an IC50 under setting [1] of 1000 to 5000 nM.

In the case of `CCCCCCCCCCCCOc1c[nH]c(C(=O)OCCN2CCCC2=O)c1` [Example 4, 2-(2-Oxopyrrolidin-1-yl)ethyl 4-(dodecyloxy)-1H-pyrrole-2-carboxylate], the IC50 under setting [1] was in the range of 1000 to 5000 nM.

As for `CCCCCCCCCCCCOc1c[nH]c(C(=O)OCC(F)(F)F)c1` [Example 5, 2,2,2-Trifluoroethyl 4-(dodecyloxy)-1H-pyrrole-2-carboxylate], the IC50 under setting [1] lay in the range of 250 to 1000 nM.

In the case of `CCCCCCCCCCCCOc1c[nH]c(C(=O)OCCO)c1` [Example 6, 2-Hydroxyethyl 4-(dodecyloxy)-1H-pyrrole-2-carboxylate], under setting [1], the IC50 lay within 1000 to 5000 nM.

Compound `CCCCCCCCCCCCOc1c[nH]c(C(=O)OCCOCCOCCOCCO)c1` [Example 7, 2-(2-(2-(2-Hydroxyethoxy)ethoxy)ethoxy)ethyl 4-(dodecyloxy)-1H-pyrrole-2-carboxylate] came in with an IC50 under setting [1] of over 5000 nM.

As to `CCCCCCCCCCCCOc1c[nH]c(C(=O)OC(C)OC(=O)OC(C)C)c1` (centres unmarked) [Example 8, 1-((Isopropoxycarbonyl)oxy)ethyl 4-(dodecyloxy)-1H-pyrrole-2-carboxylate], the IC50 runs as follows: under setting [2], 100 to 250 nM; under setting [1], under 250 nM.

As to `CCCCCCCCCCCCOc1c[nH]c(C(=O)OCC(=O)N(C)CC(=O)OCC)c1` [Example 9, 2-((2-Ethoxy-2-oxoethyl)(methyl)amino)-2-oxoethyl 4-(dodecyloxy)-1H-pyrrole-2-carboxylate], the IC50 under setting [1] was 1000 to 5000 nM.

Take `CCCCCCCCCCCCOc1c[nH]c(C(=O)OCCOC(=O)[C@@H](N)C(C)C)c1` [Example 10, 2-((L-valyl)oxy)ethyl 4-(dodecyloxy)-1H-pyrrole-2-carboxylate]: under setting [1], the IC50 lay in the range of 1000 to 5000 nM.

Turning to `CCCCCCCCCCCCOc1c[nH]c(C(=O)OCc2oc(=O)oc2C)c1` [Example 11, (5-methyl-2-oxo-1,3-dioxol-4-yl)methyl 4-(dodecyloxy)-1H-pyrrole-2-carboxylate], the IC50 is 100 to 250 nM under setting [2] and under 250 nM under setting [1].

Consider `CCCCCCCCCCc1c[nH]c(C(=O)O)c1F` [Example 12, 4-Decyl-3-fluoro-1H-pyrrole-2-carboxylic acid], for which the half-maximal inhibitory concentration (IC50) is under 50 nM under setting [2] and under 250 nM under setting [1].

For the compound `CCCCCCCCCCCc1c[nH]c(C(=O)O)c1F` [Example 13, 3-Fluoro-4-undecyl-1H-pyrrole-2-carboxylic acid], the IC50 is under 50 nM under setting [2] and under 250 nM under setting [1].

`CCCCCCCCCCCCc1c[nH]c(C(=O)O)c1F` [Example 14, 4-Dodecyl-3-fluoro-1H-pyrrole-2-carboxylic acid]: the IC50 reads like this: under setting [2], under 50 nM; under setting [1], under 250 nM.

In the case of `CCCCCCCCCCCCc1c[nH]c(C(=O)OCC(F)(F)F)c1F` [Example 15, 2,2,2-Trifluoroethyl 4-dodecyl-3-fluoro-1H-pyrrole-2-carboxylate], the IC50 is, setting by setting: under setting [2], under 50 nM; under setting [1], under 250 nM.

On to `CCCCCCCCCCCCc1c[nH]c(C(=O)OCCOCCOCC)c1F` [Example 16, 2-(2-Ethoxyethoxy)ethyl 4-dodecyl-3-fluoro-1H-pyrrole-2-carboxylate], for which the IC50 is, setting by setting: under setting [2], 50 to 100 nM; under setting [1], under 250 nM.

`CCCCCCCCCCCCc1c[nH]c(C(=O)OC(C)OC(=O)OC(C)C)c1F` (centres unmarked) [Example 17, 1-((Isopropoxycarbonyl)oxy)ethyl 4-dodecyl-3-fluoro-1H-pyrrole-2-carboxylate]: the IC50 runs as follows: under setting [2], under 50 nM; under setting [1], under 250 nM.

On to `CCCCCCCCCCCCc1c[nH]c(C(=O)OC(C)OC(=O)OCCOC)c1F` (centres unmarked) [Example 18, 1-(((2-Methoxyethoxy)carbonyl)oxy)ethyl 4-dodecyl-3-fluoro-1H-pyrrole-2-carboxylate], for which the IC50 is, setting by setting: under setting [2], 100 to 250 nM; under setting [1], under 250 nM.

For `CCCCCCCCCCCCc1c[nH]c(C(=O)OC(C)OC(=O)OCCOCCOCC)c1F` (centres unmarked) [Example 19, 4-Oxo-3,5,8,11-tetraoxatridecan-2-yl 4-dodecyl-3-fluoro-1H-pyrrole-2-carboxylate], the IC50 was under 50 nM under setting [2] and under 250 nM under setting [1].

As for `CCCCCCCCCCCCCc1c[nH]c(C(=O)OCC)c1F` [Example 20, Ethyl 3-fluoro-4-tridecyl-1H-pyrrole-2-carboxylate], the IC50 under setting [1] lay in the range of 1000 to 5000 nM.

As to `CCCCCCCCCCCCCc1c[nH]c(C(=O)O)c1F` [Example 21, 3-Fluoro-4-tridecyl-1H-pyrrole-2-carboxylic acid], the IC50 is, setting by setting: under setting [2], under 50 nM; under setting [1], under 250 nM.

For the compound `CCCCCCCCCCCCCc1c[nH]c(C(=O)OC)c1F` [Example 22, Methyl 3-fluoro-4-tridecyl-1H-pyrrole-2-carboxylate], the IC50 under setting [1] is 1000 to 5000 nM.

For the compound `CCCCCCCCCCCCCc1c[nH]c(C(=O)OC(C)C)c1F` [Example 23, Isopropyl 3-fluoro-4-tridecyl-1H-pyrrole-2-carboxylate], under setting [1], the IC50 is over 5000 nM.

In the case of `CCCCCCCCCCCCCc1c[nH]c(C(=O)OC(C)(C)C)c1F` [Example 24, Tert-butyl 3-fluoro-4-tridecyl-1H-pyrrole-2-carboxylate], the half-maximal inhibitory concentration (IC50) under setting [1] was in the range of 250 to 1000 nM.

Compound `CCCCCCCCCCCCCc1c[nH]c(C(=O)OC2CCCCC2)c1F` [Example 25, Cyclohexyl 3-fluoro-4-tridecyl-1H-pyrrole-2-carboxylate] displayed an IC50 under setting [1] of 1000 to 5000 nM.

`CCCCCCCCCCCCCc1c[nH]c(C(=O)OCc2ccccc2)c1F` [Example 26, Benzyl 3-fluoro-4-tridecyl-1H-pyrrole-2-carboxylate]: the IC50 under setting [2] was 100 to 250 nM and the IC50 under setting [1] is under 250 nM.

As to `CCCCCCCCCCCCCc1c[nH]c(C(=O)OCC(F)(F)F)c1F` [Example 27, 2,2,2-Trifluoroethyl 3-fluoro-4-tridecyl-1H-pyrrole-2-carboxylate], the IC50 under setting [2] was under 50 nM and the IC50 under setting [1] was under 250 nM.

As to `CCCCCCCCCCCCCc1c[nH]c(C(=O)OCCN2C(=O)CCC2=O)c1F` [Example 28, 2-(2,5-Dioxopyrrolidin-1-yl)ethyl 3-fluoro-4-tridecyl-1H-pyrrole-2-carboxylate], the IC50 reads like this: under setting [2], 50 to 100 nM; under setting [1], under 250 nM.

As to `CCCCCCCCCCCCCc1c[nH]c(C(=O)OCCN2CCCC2=O)c1F` [Example 29, 2-(2-Oxopyrrolidin-1-yl)ethyl 3-fluoro-4-tridecyl-1H-pyrrole-2-carboxylate], the IC50 by setting is: under setting [2], 100 to 250 nM; under setting [1], under 250 nM.

For the compound `CCCCCCCCCCCCCc1c[nH]c(C(=O)OCc2oc(=O)oc2C)c1F` [Example 30, (5-Methyl-2-oxo-1,3-dioxol-4-yl)methyl 3-fluoro-4-tridecyl-1H-pyrrole-2-carboxylate], the IC50 runs as follows: under setting [2], under 50 nM; under setting [1], under 250 nM.

In the case of `CCCCCCCCCCCCCc1c[nH]c(C(=O)OCC(=O)N(C)CC(=O)OCC)c1F` [Example 31, 2-((2-Ethoxy-2-oxoethyl)(methyl)amino)-2-oxoethyl 3-fluoro-4-tridecyl-1H-pyrrole-2-carboxylate], the IC50 was under 50 nM under setting [2] and under 250 nM under setting [1].

For the compound `CCCCCCCCCCCCCc1c[nH]c(C(=O)OCCO)c1F` [Example 32, 2-Hydroxyethyl 3-fluoro-4-tridecyl-1H-pyrrole-2-carboxylate], the IC50 under setting [1] fell in the range of 250 to 1000 nM.

For `CCCCCCCCCCCCCc1c[nH]c(C(=O)OCCCO)c1F` [Example 33, 3-Hydroxypropyl 3-fluoro-4-tridecyl-1H-pyrrole-2-carboxylate], the IC50 runs as follows: under setting [2], 50 to 100 nM; under setting [1], under 250 nM.

Turning to `CCCCCCCCCCCCCc1c[nH]c(C(=O)OCCCCO)c1F` [Example 34, 4-Hydroxybutyl 3-fluoro-4-tridecyl-1H-pyrrole-2-carboxylate], the IC50 is 100 to 250 nM under setting [2] and under 250 nM under setting [1].

Take `CCCCCCCCCCCCCc1c[nH]c(C(=O)OCCCCCO)c1F` [Example 35, 5-Hydroxypentyl 3-fluoro-4-tridecyl-1H-pyrrole-2-carboxylate]: the IC50 under setting [2] was in the range of 100 to 250 nM and the IC50 under setting [1] was under 250 nM.

In the case of `CCCCCCCCCCCCCc1c[nH]c(C(=O)OCCCCCCO)c1F` [Example 36, 6-Hydroxyhexyl 3-fluoro-4-tridecyl-1H-pyrrole-2-carboxylate], the IC50 reads like this: under setting [2], 100 to 250 nM; under setting [1], under 250 nM.

Consider `CCCCCCCCCCCCCc1c[nH]c(C(=O)OCCCCCCCO)c1F` [Example 37, 7-Hydroxyheptyl 3-fluoro-4-tridecyl-1H-pyrrole-2-carboxylate], for which the IC50 runs as follows: under setting [2], 100 to 250 nM; under setting [1], under 250 nM.

Values taken from patent US20210220328A1, “PYRROLE DERIVATIVES AS ACC INHIBITORS” (Almirall, S.A., priority 2017, published 2021).
